Reference: US20260256140A1, “BIPHENYL COMPOUNDS CONTAINING SUBSTITUTED SULFIDE (SULFOXIDE) GROUPS AND USES THEREOF” (METISA BIOTECHNOLOGY CO., LTD, priority 2021, published 2026)

Key:
Assay type in all cases: in vivo
Mythimna separata = assay: Activity against Mythimna separata, Airbrush spray on maize leaf pieces; settings: 500 mg/L, 3 days after administration, 3rd-instar larvae
Description: Insecticidal activity determination experiments were conducted on several insects using the compound of the present invention and control compounds KC1, KC2, and KC3. Determination methods were described below. The compounds to be determined were each dissolved in a mixed solvent of acetone/methanol (1:1), and diluted using water containing 0.1% (wt) tween-80 to desired concentrations. With Mythimna separata and Plutella xylostella as targets, Airbrush spray method was adopted for activity determination. Determination Method: maize leaves were cut into 2 cm leaf pieces, and the front and back of each leaf piece were sprayed under an Airbrush spray treatment pressure of 10 psi (approximate to 0.7 kg/cm^2) and with a spray volume of 0.5 mL. After drying in the shade, 10 3rd-instar larvae were inoculated for each treatment, and each treatment was repeated for 3 times. After the treatment, the leaf pieces were put into an observation chamber at 25° C. and with a relative humidity of 60% to 70%, and the number of living larvae was investigated 3 days after the administration of the compounds, and the death rates were calculated.

Plutella xylostella = assay: Activity against Plutella xylostella, Airbrush spray on cabbage leaf discs; settings: 500 mg/L, 3 days after administration, 3rd-instar larvae
Description: Insecticidal activity determination experiments were conducted on several insects using the compound of the present invention and control compounds KC1, KC2, and KC3. Determination methods were described below. The compounds to be determined were each dissolved in a mixed solvent of acetone/methanol (1:1), and diluted using water containing 0.1% (wt) tween-80 to desired concentrations. With Mythimna separata and Plutella xylostella as targets, Airbrush spray method was adopted for activity determination. Determination Method: cabbage leaves were formed into leaf discs having a diameter of 2 cm using a puncher, and the front and back of each leaf disc were sprayed under an Airbrush spray treatment pressure of 10 psi (approximate to 0.7 kg/cm^2) and with a spray volume of 0.5 mL. After drying in the shade, 10 3rd-instar larvae were inoculated for each treatment, and each treatment was repeated for 3 times. After the treatment, the leaf discs were placed into an observation chamber at 25° C. and with a relative humidity of 60% to 70%, and the number of living larvae was investigated 3 days after the administration of the compounds, and the death rates were calculated.

Tetranychus cinnabarinus = assay: Greenhouse acaricidal activity determination on Phaseolus vulgaris seedlings; settings: 3 days after administration, parallel comparison
Description: Greenhouse acaricidal activity determination was carried out on the compounds of the present invention. A determination method was described below. […] Two true leaves of Phaseolus vulgaris seedlings were inoculated with adult Tetranychus cinnabarinus and a basic number was investigated. An entire seedling was then sprayed using a hand-held sprayer. Each treatment was repeated for 3 times. After the treatment, the seedlings were placed into a standard observation chamber, and the number of living mites was investigated 72 hours later, and the death rates were calculated. Parallel comparison experiments on acaricidal activity were conducted for Tetranychus cinnabarinus using the compounds 1.22, 1.23, and 1.24 and control compounds (3 days after the administration of the compounds), and the determination method was as described above; and the results were shown in Table 14: […]

| Compound | death rate for Mythimna separata (Mythimna separata) [%] | death rate for Plutella xylostella (Plutella xylostella) [%] | Death Rate (%, 3 days after the administration of the compounds) 1.25 mg/L (Tetranychus cinnabarinus) [%] | Death Rate (%, 3 days after the administration of the compounds) 2.5 mg/L (Tetranychus cinnabarinus) [%] |
| --- | --- | --- | --- | --- |
| Cc1cc(F)c(-c2cc(SCC(F)(F)F)c(C)cc2F)cc1SCC(F)(F)F [KC1] | 0 | 0 | 22.9 | 52.0 |
| Cc1cc(F)c(-c2cc([S+]([O-])CC(F)(F)F)c(C)cc2F)cc1SCC(F)(F)F (stereo not drawn) [KC2] | 0 | 0 | 0 | 50.0 |
| Cc1cc(F)c(-c2cc([S+]([O-])CC(F)(F)F)c(C)cc2F)cc1[S+]([O-])CC(F)(F)F (stereo not drawn) [KC3] | 0 | 0 | 0 | 0 |
